# Measured values: patent US20240383908A1, “SYNTHESIS AND APPLICATION OF PHOSPHATASE DEGRADER” (HINOVA PHARMACEUTICALS INC., priority 2021, published 2024)
# Columns and labels:
# SHP2 protein [1] = molecular target: T1, SHP2 protein (Homo sapiens, UniProt Q06124); test: Degradation activity on SHP2 protein in NCI-H358 cells (Western blot, DC50); format: cell-based; parameters: endogenous in cells; conditions: read-out: Degradation activity for differenct cell lines NCI-H358 (DC50)
# T1 sequence (Q06124 1-593): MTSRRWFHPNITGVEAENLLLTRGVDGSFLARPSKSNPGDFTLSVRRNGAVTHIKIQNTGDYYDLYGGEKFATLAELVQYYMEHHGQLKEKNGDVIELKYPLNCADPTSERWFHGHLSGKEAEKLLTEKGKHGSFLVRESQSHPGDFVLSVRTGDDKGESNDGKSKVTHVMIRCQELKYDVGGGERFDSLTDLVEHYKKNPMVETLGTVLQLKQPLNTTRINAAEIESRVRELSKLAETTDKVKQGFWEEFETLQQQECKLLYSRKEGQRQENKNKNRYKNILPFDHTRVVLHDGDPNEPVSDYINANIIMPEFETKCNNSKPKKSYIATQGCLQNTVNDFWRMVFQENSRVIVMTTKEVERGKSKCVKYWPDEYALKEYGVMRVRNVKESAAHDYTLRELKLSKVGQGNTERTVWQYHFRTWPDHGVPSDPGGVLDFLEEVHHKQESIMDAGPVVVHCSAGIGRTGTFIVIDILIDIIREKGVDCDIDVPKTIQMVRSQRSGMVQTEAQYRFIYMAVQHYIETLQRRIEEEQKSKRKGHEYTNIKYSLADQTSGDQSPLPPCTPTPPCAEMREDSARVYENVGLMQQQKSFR
# Description: (1) MV-411 cells were cultured in the cell culture medium, and then well-growing cells were selected and inoculated in a 12-well plate, with 1 mL/well and 1×10^6 cells/well. The plate was incubated overnight in a 5% CO2 cell incubator at 37° C.
# (2) 10 mM storage solution of each drug was prepared using dimethylsulfoxide (DMSO). The stock solution was diluted gradually with DMSO before use, and then 1 μL of the compound solution was added to the cell culture well (to ensure that the DMSO concentration in the culture system was […]), so that the final drug concentration is 100 nM, 10 nM, 3 nM, 1 nM, 0.3 nM, and 0.1 nM. Two wells were set for each concentration. The plate was gently shaken and mixed. Additionally, negative control wells (containing an equal amount of DMSO) and positive control wells were included.
# (3) After 24 hours of cultivation, the cells were lysed using RIPA cell lysate, and the proteins were extracted. The protein concentration was measured using a BCA assay kit. 5× concentrated protein buffer was loaded, heated at 100° C. for 5 min, and then the sample was stored at −20° C.
# (4) For each well, 30 μg of protein was loaded to polyacrylamide gel for electrophoresis.
# (5) The protein was transferred from polyacrylamide gel to PVDF membrane, and sealed at room temperature with 5% skimmed milk for 1 h, which was then incubated with the primary antibodies (Anti-SHP2 rabbit mAb and Anti-GAPDH rabbit mAb) at 4° C. overnight. The membrane was washed three times with TBST solution, 10 minutes for each time. After that, the membrane was incubated with the secondary antibodies (horseradish peroxidase labeled goat anti-rabbit IgG) at room temperature for 2 h, and then washed three times with TBST solution, 10 minutes for each time, followed by exposure.
# (6) The images were analyzed with Image J grayscale, and the degradation ratio of protein bands in the test group was calculated, based on the negative control group (DMSO) (100%).
# (7) Using the Dose-response-inhibition equation in the data processing software GraphPad Prism 8, the DC50 value was obtained (which represents the drug concentration corresponding to 50% degradation of the target protein).
# Using similar methods and different cell lines, the degradation activity of the compound according to the present invention on SHP2 protein of different cell lines was tested under suitable culture conditions.
# SHP2 protein [2] = molecular target: T1, SHP2 protein; test: Degradation activity on SHP2 protein in MIA Paca-2 cells (Western blot, DC50); format: cell-based; parameters: endogenous in cells; host or cells: MIA Paca-2 cells; conditions: read-out: Degradation activity for differenct cell lines MIA Paca-2 (DC50)
# Procedure, shortened: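 Cells were treated 24 h at 37 °C with compound (0.1–100 nM final, 0.1% DMSO). SHP2 was measured by Western blot with GAPDH as loading control, densitometry normalized to DMSO (100%). DC50, the concentration giving 50% degradation, came from a dose-response fit.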
SMILES,DC50 (SHP2 protein [1]) [nM],DC50 (SHP2 protein [2]) [nM]
CC1(N)CCN(c2cnc(Sc3cccc(NC(=O)CCCCCCN4CC5(CCC(c6ccc(C(=O)NCc7ccc8c(c7)CN(C7CCC(=O)NC7=O)C8=O)nc6)CC5)C4)c3)cn2)CC1 (centres unmarked) [Compound 216],< 100,< 100
Cc1cc(N2CCC(N3CC=C(c4cnc(C(=O)NCc5ccc6c(c5)CN(C5CCC(=O)NC5=O)C6=O)cc4C)CC3)CC2)ccc1C(=O)Nc1cccc(Sc2cnc(N3CCC(C)(N)CC3)cn2)c1 (centres unmarked) [Compound 457],< 100,< 100
CC1(N)CCN(c2cnc(Sc3cccc(NC(=O)CCCCN4CCC(N5CCN(c6ccc(C(=O)NCc7ccc8c(c7)CN(C7CCC(=O)NC7=O)C8=O)nn6)CC5)C4)c3)cn2)CC1 (centres unmarked) [Compound 266],100 to 1000,> 1000
CC1CC(c2ccc(C(=O)NCc3ccc4c(c3)CN(C3CCC(=O)NC3=O)C4=O)nn2)=CCN1CCCCCCCCC(=O)Nc1cccc(Sc2cnc(N3CCC(C)(N)CC3)cn2)c1 (centres unmarked) [Compound 228],< 100,< 100
CC1(N)CCN(c2cnc(Sc3cccc(NC(=O)c4ccc(N5CCC(N6CC=C(c7cnc(C(=O)NCc8ccc9c(c8)CN(C8CCC(=O)NC8=O)C9=O)cc7Cl)CC6)CC5)nc4)c3)cn2)CC1 (centres unmarked) [Compound 419],< 100,< 100
CC1(N)CCN(c2cnc(Sc3cccc(NC(=O)c4ccc(N5CCC(N6CCN(c7ccc(C(=O)NCc8ccc9c(c8)CN(C8CCC(=O)NC8=O)C9=O)nc7)CC6)CC5)cc4)c3)cn2)CC1 (centres unmarked) [Compound 395],< 100,< 100
CC1(N)CCN(c2cnc(Sc3cccc(NC(=O)c4ccc(N5CCC(N6CC=C(c7ccc(C(=O)NCc8ccc9c(c8)CN(C8CCC(=O)NC8=O)C9=O)nc7)CC6)C(F)C5)nc4)c3)cn2)CC1 (centres unmarked) [Compound 409],< 100,< 100
CC1(N)CCN(c2cnc(Sc3cccc(NC(=O)CCCCCCCCN4C5C=C(c6ccc(C(=O)NCc7ccc8c(c7)CN(C7CCC(=O)NC7=O)C8=O)nn6)CC4CC5)c3)cn2)CC1 (centres unmarked) [Compound 219],< 100,< 100
CC1(N)CCN(c2cnc(Sc3cccc(NC(=O)c4ccc(N5CCC(N6CC=C(c7ccc(C(=O)NCc8ccc9c(c8)CN(C8CCC(=O)NC8=O)C9=O)nc7)C6)CC5)c(F)c4)c3)cn2)CC1 (centres unmarked) [Compound 410],< 100,< 100
CC1(N)CCN(c2cnc(Sc3cccc(NC(=O)CCCCCCCCN4C[C@H]5C[C@@H]4CN5c4ccc(C(=O)NCc5ccc6c(c5)CN(C5CCC(=O)NC5=O)C6=O)nn4)c3)cn2)CC1 (some centres unmarked) [Compound 238],< 100,< 100
CCC1(N)CCN(c2cnc(Sc3cccc(NC(=O)CCCCCCCCN4CCC(c5ccc(C(=O)NCc6ccc7c(c6)CN(C6CCC(=O)NC6=O)C7=O)nn5)CC4)c3)cn2)CC1 (centres unmarked) [Compound 223],< 100,< 100
"CC1(N)CCN(c2cnc(Sc3cccc(NC(=O)CCCCCCCCN4C5CCC4CC(c4ccc(C(=O)NCc6ccc7c(c6)CN(C6CCC(=O)NC6=O)C7=O)nn4)C5)c3)cn2)CC1 (single isomer, unassigned) [Compound 232]",< 100,< 100
CC1(N)CCN(c2cnc(Sc3cccc(NC(=O)c4ccc(N5CCC(N6CCN(c7ccc(C(=O)NCc8ccc9c(c8)CN(C8CCC(=O)NC8=O)C9=O)nn7)CC6)CC5)c(F)c4)c3)cn2)CC1 (centres unmarked) [Compound 397],< 100,< 100
NC1(CO)CCN(c2cnc(Sc3cccc(NC(=O)c4ccc(N5CCC(N6CC=C(c7ccc(C(=O)NCc8ccc9c(c8)CN(C8CCC(=O)NC8=O)C9=O)nn7)CC6)CC5)cc4)c3)cn2)CC1 (centres unmarked) [Compound 375],< 100,> 1000
Cc1ncsc1-c1ccc([C@H](C)NC(=O)[C@@H]2C[C@@H](O)CN2C(=O)[C@@H](NC(=O)c2cnc(N3CCN(CCCC(=O)Nc4cccc(Sc5cnc(N6CCC7(CC6)CO[C@@H](C)[C@H]7N)cn5)c4)CC3)nc2)C(C)(C)C)cc1 [Compound 230],< 100,< 100
CC1(N)CCN(c2cnc(Sc3cccc(NC(=O)c4csc(N5CCC(N6CC=C(c7ccc(C(=O)NCc8ccc9c(c8)CN(C8CCC(=O)NC8=O)C9=O)nn7)CC6)CC5)n4)c3)cn2)CC1 (centres unmarked) [Compound 357],< 100,< 100
